Laboratory results taken from patent publication US20260207720A1, “COMPOSITIONS AND METHODS FOR TREATING FUNGAL INFECTIONS” (MUCPharm Pty Ltd, priority 2022, published 2026).
Converted amounts (≈) assume the structure as drawn. Read-outs that look alike come from different tables or passages of the source.

Assays:
Rhizopus microsporus = experiment: Chequerboard broth microdilution antifungal susceptibility testing (MIC); format: cell-based; conditions: for isolates with more than 10× increase: Rhizopus microspores, antifungal with BromAc; for MIC / Observed inhibitory effect: Rhizopus microsporus; for Observed inhibitory effect: antifungal in combination with BromAc (5 mg/ml Acetylcysteine+12.5 μg/ml Bromelain) vs alone
Experimental: (§1) Unless otherwise described, fungal cultures were grown on potato dextrose agar plates at 35° C. until mature (appearance of conidia) and used to prepare suspensions in sterile water. […] These suspensions were then added in equal volume to solutions containing the candidate species described above and incubated at 35° C. for 24 hr. Plates were then analysed for fungal growth inhibition and MIC values determined. […] [MICA (combined)/MICA]+[MICB (combined)/MICB] MICA (combined) is the MIC of drug A when both drugs (i.e. drug A and drug B) are present and MICA is the MIC of drug A used in isolation. Similarly, MICB (combined) is the MIC of drug B when both drugs are present and MICB is the MIC of drug B used in isolation.

Rhizopus arrhizus = experiment: as above; format: cell-based; conditions: for isolates with 10× increase: Rhizopus Arrhizus, antifungal with BromAc; for MIC / Observed inhibitory effect: Rhizopus arrhizus; for Observed inhibitory effect: antifungal in combination with BromAc (5 mg/ml Acetylcysteine+12.5 μg/ml Bromelain) vs alone
Experimental: as §1

[1] = Rhizopus microsporus (80-21-006-5340), drug alone, read-out: MIC
[2] = eight R. microsporus strains, read-out: MIC, average over the strains
[3] = isolate R. microsporus 1, BromAc at constant concentration where combined, read-out: MIC
[4] = isolate R. microsporus 2, BromAc at constant concentration where combined, read-out: MIC
[5] = isolate R. microsporus 3, BromAc at constant concentration where combined, read-out: MIC
[6] = isolate R. microsporus 4, BromAc at constant concentration where combined, read-out: MIC
[7] = isolate R. microsporus 5, BromAc at constant concentration where combined, read-out: MIC
[8] = isolate R. microsporus 6, BromAc at constant concentration where combined, read-out: MIC
[9] = isolate R. microsporus 7, BromAc at constant concentration where combined, read-out: MIC
[10] = isolate R. microsporus 8, BromAc at constant concentration where combined, read-out: MIC
[11] = Rhizopus arrhizus (80-21-015-4777), drug alone, read-out: MIC
[12] = eight R. arrhizus strains, read-out: MIC, average over the strains
[13] = isolate R. archizus 1, BromAc at constant concentration where combined, read-out: MIC
[14] = isolate R. archizus 2, BromAc at constant concentration where combined, read-out: MIC
[15] = isolate R. archizus 3, BromAc at constant concentration where combined, read-out: MIC
[16] = isolate R. archizus 8, BromAc at constant concentration where combined, read-out: MIC
[17] = isolate R. arrhizus 4, BromAc at constant concentration where combined, read-out: MIC
[18] = isolate R. arrhizus 5, BromAc at constant concentration where combined, read-out: MIC
[19] = isolate R. arrhizus 6, BromAc at constant concentration where combined, read-out: MIC
[20] = isolate R. arrhizus 7, BromAc at constant concentration where combined, read-out: MIC

SMILES	isolates with more than 10× increase (Rhizopus microsporus)	MIC (Rhizopus microsporus; [1]) [µg/mL]	MIC (Rhizopus microsporus; [2]) [µg/mL]	MIC (Rhizopus microsporus; [3]) [µg/mL]	MIC (Rhizopus microsporus; [4]) [µg/mL]	MIC (Rhizopus microsporus; [5]) [µg/mL]	MIC (Rhizopus microsporus; [6]) [µg/mL]	MIC (Rhizopus microsporus; [7]) [µg/mL]	MIC (Rhizopus microsporus; [8]) [µg/mL]	MIC (Rhizopus microsporus; [9]) [µg/mL]	MIC (Rhizopus microsporus; [10]) [µg/mL]	Observed inhibitory effect (Rhizopus microsporus)	MICs, range over the strains (Rhizopus microsporus; eight R. microsporus strains) [µg/mL]	isolates with 10× increase (Rhizopus arrhizus)	MIC (Rhizopus arrhizus; [11]) [µg/mL]	MIC (Rhizopus arrhizus; [12]) [µg/mL]	MIC (Rhizopus arrhizus; [13]) [µg/mL]	MIC (Rhizopus arrhizus; [14]) [µg/mL]	MIC (Rhizopus arrhizus; [15]) [µg/mL]	MIC (Rhizopus arrhizus; [16]) [µg/mL]	also measured
C[C@@H]1[C@H](O)[C@@H](C)/C=C/C=C/C=C/C=C/C=C/C=C/C=C/[C@H](O[C@@H]2O[C@H](C)[C@@H](O)[C@H](N)[C@@H]2O)C[C@@H]2O[C@](O)(C[C@@H](O)C[C@@H](O)[C@H](O)CC[C@@H](O)C[C@@H](O)CC(=O)O[C@H]1C)C[C@H](O)[C@H]2C(=O)O [Amphotericin B]	9 of 10	0.5 (≈ 0.541 µM)	0.7 (≈ 0.758 µM)	1	1	0.25	0.5	0.5	0.5	0.5	0.5	Strong (Strong = 5-10x (or greater) inhibitory effect)	0.5 to 1	8 of 8	0.5 (≈ 0.541 µM)	0.6 (≈ 0.649 µM)	1	0.5	1	0.5	effect on fungal culture (in words) (Rhizopus microsporus; alone at 0.25 mg/L): not effective; MIC (Rhizopus arrhizus; [17]): 0.5 µg/mL; MIC (Rhizopus arrhizus; [18]): 0.5 µg/mL; MIC (Rhizopus arrhizus; [19]): 1 µg/mL; MIC (Rhizopus arrhizus; [20]): 0.5 µg/mL; Observed inhibitory effect (Rhizopus arrhizus): Strong (Strong = 5-10x (or greater) inhibitory effect); effect on fungal culture (in words) (Rhizopus arrhizus; alone at 0.25 mg/L): not effective; Amphotericin concentration at which complete inhibition was seen (Rhizopus arrhizus; combined with 25 μg/mL of bromelain): 0.3 mg/L; MICs, range over the strains (Rhizopus arrhizus; eight R. arrhizus strains): 0.25 to 1 µg/mL
CC[C@@H]([C@H](C)O)n1ncn(-c2ccc(N3CCN(c4ccc(OC[C@@H]5CO[C@@](Cn6cncn6)(c6ccc(F)cc6F)C5)cc4)CC3)cc2)c1=O [Posaconazole]	9 of 10	1 (≈ 1.43 µM)	0.5 (≈ 0.713 µM)	1	1	0.25	0.25	0.25	0.25	0.25	0.25	Strong (Strong = 5-10x (or greater) inhibitory effect)	0.25 to 1	7 of 8	0.5 (≈ 0.713 µM)	0.8 (≈ 1.14 µM)	1	1	0.25	0.25	MIC (Rhizopus arrhizus; [17]): 0.25 µg/mL; MIC (Rhizopus arrhizus; [18]): 0.25 µg/mL; MIC (Rhizopus arrhizus; [19]): 0.5 µg/mL; MIC (Rhizopus arrhizus; [20]): 0.25 µg/mL; Observed inhibitory effect (Rhizopus arrhizus): Strong (Strong = 5-10x (or greater) inhibitory effect); MICs, range over the strains (Rhizopus arrhizus; eight R. arrhizus strains): 0.25 to 1 µg/mL
